Legend:
Format in all cases: functional
[1] = test system: Mus musculus; assay: CNS activity in po dosed mouse assessed as reduction in fighting behaviour
[2] = test system: Mus musculus; assay: Anticonvulsant activity in po dosed mouse assessed as protection against maximal electroshock-induced seizures
[3] = test system: Mus musculus; assay: Anticonvulsant activity in po dosed mouse assessed as protection against pentylenetetrazole-induced seizures
[4] = test system: Mus musculus; assay: CNS activity in po dosed mouse assessed as reduction in muscle relaxant activity by inclined screening method
[5] = test system: Felis catus; assay: CNS activity in po dosed unanesthesized cat assessed as muscle relaxant activity; conditions: read-out: MED

SMILES	ED50 [1]	ED50 [2]	ED50 [3]	ED50 [4]	minimal effective dose [5]
O=C1CN=C(c2ccncn2)c2cc(Cl)ccc2N1	> 100 mg/kg	> 800 mg/kg	340 mg/kg	> 400 mg/kg	–
O=C1CN=C(c2cnccn2)c2cc(Cl)ccc2N1	50 mg/kg	> 800 mg/kg	7.4 mg/kg	300 mg/kg	10 mg/kg
Cc1cnc(C)c(C2=NCC(=O)Nc3ccc(Br)cc32)n1	50 mg/kg	> 800 mg/kg	37 mg/kg	> 400 mg/kg	10 mg/kg
O=C1CN=C(c2ncccn2)c2cc(Cl)ccc2N1	100 mg/kg	520 mg/kg	1.75 mg/kg	500 mg/kg	2 mg/kg
CN1C(=O)CN=C(c2ncccn2)c2cc(Cl)ccc21	–	315 mg/kg	0.75 mg/kg	> 200 mg/kg	0.1 mg/kg
O=[N+]([O-])c1ccc2c(c1)C(c1ncccn1)=NCCN2	–	> 800 mg/kg	68 mg/kg	> 400 mg/kg	–
CN1CCN=C(c2ncccn2)c2cc([N+](=O)[O-])ccc21	> 100 mg/kg	> 800 mg/kg	93 mg/kg	250 mg/kg	20 mg/kg
CN1CCN=C(c2ncccn2)c2cc(Cl)ccc21	100 mg/kg	360 mg/kg	> 800 mg/kg	200 mg/kg	10 mg/kg
O=C1CN=C(c2ccccn2)c2cc(Br)ccc2N1 [BROMAZEPAM]	10 mg/kg	34 mg/kg	0.8 mg/kg	30 mg/kg	0.2 mg/kg
CN1C(=O)CN=C(c2ccccc2)c2cc(Cl)ccc21 [DIAZEPAM]	10 mg/kg	22 mg/kg	1.4 mg/kg	30 mg/kg	0.2 mg/kg

— ChEMBL document CHEMBL3272296, “Quinazolines and 1,4-benzodiazepines. 82.1 5-Pyrimidyl-and 5-pyrazinylbenzodiazepines” (1977)
